Test results as given in patent publication US12611393B2, “Treatment of pain by targeting NR4A1” (UNIVERSITY OF CINCINNATI, priority 2019, dated 2026).

Columns and labels:
[1] = system: mice after plantar incision (postoperative pain); assay: Plantar incision model of postoperative pain (von Frey filaments, Hargreaves test); assay type: in vivo, mouse; details: vs vehicle; for resolution of postoperative pain (mechanical and thermal hypersensitivity): von Frey filaments and Hargreaves test
Procedure: (§1) To investigate the underlying mechanisms of postoperative pain, we adopted a mouse model that is characterized by increased pain sensitivity and macrophage infiltration after a surgical incision made in the plantar aspect of the hind paw. Pain sensitivity and macrophage infiltration were evaluated in NA4A1 knockout (KO) mice. Expression and function of NR4A1 were also evaluated in neuronal and skin tissues, as well as in cultured macrophages.
We used a well-characterized animal model of postoperative pain consisting in plantar incision (FIG. 1). Specifically, FIGS. 1A-1C show an animal model of post-operative pain. FIG. 1A illustrates the experimental design depicting the plantar incision and timeline for the behavioral tests. FIG. 1B is a graph showing how, after plantar incision, mice develop mechanical hypersensitivity (assessed by von Frey filaments) and FIG. 1C is a graph showing thermal hypersensitivity (assessed by Hargreaves test). […]
Cutaneous application of an NA4A1 agonist accelerates the resolution of post-operative pain. […] FIG. 4B is a graph showing mechanical hypersensitivity as assessed by von Frey filaments before injection of the drug (prevention). FIG. 4C is a graph showing mechanical hypersensitivity as assessed by von Frey filaments after drug injection (acute analgesia). FIG. 4D is a graph showing thermal hypersensitivity as assessed by Hargreaves test before injection of the drug (prevention). FIG. 4E is a graph showing thermal hypersensitivity as assessed by Hargreaves test after drug injection (acute analgesia). […]
FIG. 5B is a graph showing mechanical hypersensitivity as assessed by von Frey filaments before injection of the drug (prevention), and FIG. 5C is a graph showing mechanical hypersensitivity as assessed by von Frey filaments after drug injection (acute analgesia). FIG. 5D is a graph showing thermal hypersensitivity as assessed by Hargreaves test before injection of the drug (prevention). FIG. 5D is a graph showing thermal hypersensitivity as assessed by Hargreaves test after drug injection (acute analgesia). […]

[2] = system: NR4A1 knockout male mice after plantar incision; assay: Plantar incision model of postoperative pain in NR4A1 knockout mice (von Frey filaments, Hargreaves test); assay type: in vivo, mouse; details: local intraplantar injection, vs vehicle
Procedure: as §1
We used a well-characterized animal model of postoperative pain consisting in plantar incision (FIG. 1). Specifically, FIGS. 1A-1C show an animal model of post-operative pain. FIG. 1A illustrates the experimental design depicting the plantar incision and timeline for the behavioral tests. FIG. 1B is a graph showing how, after plantar incision, mice develop mechanical hypersensitivity (assessed by von Frey filaments) and FIG. 1C is a graph showing thermal hypersensitivity (assessed by Hargreaves test). These hypersensitivities are indicative of postoperative pain and resolve in 7 days. n=6 male mice per group, One-way ANOVA, *p<0.05 (Bonferroni).
FIG. 6A is a graph showing mechanical hypersensitivity as assessed by von Frey filaments, and FIG. 6B is a graph showing thermal hypersensitivity as assessed by Hargreaves test. […]

[3] = system: Peritoneal macrophages; assay: Expression of pro-inflammatory mediators in cultured peritoneal macrophages activated with LPS; assay type: cell-based, mouse; details: Cyto B 10 μg/ml, LPS 20 ng/ml
Procedure: Peritoneal macrophages were cultured and incubated with vehicle control, cytosporone B (Cyto B, 10 μg/ml) or/and the macrophage activator lipopolysaccharide (LPS, 20 ng/ml). n=4-8 cultures per group, One-way ANOVA, *p<0.05 (Vehicle vs. LPS, Bonferroni), #p<0.05 (LPS VS. LPS+Cyto B, Bonferroni).

[4] = system: mice with paclitaxel-induced mechanical allodynia; assay: Paclitaxel-induced neuropathic pain (CINP) model, mechanical allodynia; assay type: in vivo, mouse; details: male WT mice, vs PBS
Description: FIGS. 9A and 9B are graphs showing that NR4A1 deficiency exacerbates chemotherapy-induced neuropathic pain and neuroinflammation in DRG tissue.
FIGS. 10A and 10B are graphs showing that NA4A1 activation by Cytosporone B (Csn-B) prevents and reverses chemotherapy induced neuropathic pain. […]

SMILES: CCCCCCCC(=O)c1c(O)cc(O)cc1CC(=O)OCC [Cytosporone B]
- resolution of postoperative pain (mechanical and thermal hypersensitivity) ([1]; female mice, local intraplantar injection): accelerates the resolution of postoperative pain
- resolution of postoperative pain (mechanical and thermal hypersensitivity) ([1]; male mice, local intraplantar injection (i.pl.)): accelerates the resolution of postoperative pain
- effect on postoperative pain (mechanical and thermal hypersensitivity) ([1]; male mice, systemic intraperitoneal injection): limited effects on postoperative pain
- resolution of postoperative pain (mechanical and thermal hypersensitivity) [2]: fails to resolve postoperative pain
- expression of pro-inflammatory mediators in macrophages [3]: decreases the expression of pro-inflammatory mediators
- prevention of mechanical allodynia (chemotherapy induced neuropathic pain) ([4]; paclitaxel 2 mg/kg every other day x4, Csn-B intrathecal (i.t.) given with paclitaxel): significantly prevent
- reversal of mechanical allodynia (chemotherapy induced neuropathic pain) ([4]; treatment 14 d after first paclitaxel delivery, different doses of Csn-B): reverse
